Experimental data from PMC6792352, “Limited Chemical Structural Diversity Found to Modulate Thyroid Hormone Receptor in the Tox21 Chemical Library” (Environmental Health Perspectives, 2019).
Counter-ions that a name gives are not always drawn. Starred links: 1 amine or outer side, 2 acyl side, 3 side chain; linkers in the order of their positions; H or OH if unused. Positions of bridges follow the written chain, without caps; N, C: chain ends. Non-standard residues stand in square brackets, D forms with d. Residues, ends and D or L forms follow the SMILES beside them. *: point of attachment. X1 = NC1=N[C@@H]([C@H](N[*:1])C(=O)[*:2])C[C@H](O)N1; ΔAla(Z-3-ureido) = NC(=O)N/C=C(\N)C(=O)O; β3hOrn = NCCC[C@H](N)CC(=O)*; Dap = NC[C@H](N)C(=O)O

Test: in vitro
Conditions: rat, gh3-tre-luc cells, AC50 (uM) modified / 1000

Compound	CC50 at 24 h [µM]
Cn1cnc2ncnc(N)c21 [7-Methyladenine]	> 50
CCCCOC(=O)CC#N [Butyl cyanoacetate]	> 100
CC(C)[C@@H](Nc1ccc(C(F)(F)F)cc1Cl)C(=O)OC(C#N)c1cccc(Oc2ccccc2)c1 (stereo partly shown) [tau-Fluvalinate]	> 90
C=C(C)C(=O)OCCCCCCCC(C)C [Isodecyl methacrylate]	> 90
CN(C)c1cc(NC(=O)CNC(C)(C)C)c(O)c2c1C[C@H]1C[C@H]3[C@H](N(C)C)C(O)=C(C(N)=O)C(=O)[C@@]3(O)C(O)=C1C2=O [Tigecycline]	> 50
O=C(O)Cn1c(=O)n(Cc2ccc(Br)cc2F)c(=O)c2ccc(Cl)cc21 [Zenarestat]	> 90
CCCCCCC(=O)OCC [Ethyl heptanoate]	> 90
O=C(O)c1ccc([N+](=O)[O-])cc1 [4-Nitrobenzoic acid]	> 90
O=C=NCC1CCCC(CN=C=O)C1 (stereo not shown) [1,3-Bis(isocyanatomethyl)cyclohexane]	> 90
CCCCCCCCCCCCCC(=O)OCC(COP(=O)([O-])OCC[N+](C)(C)C)OC(=O)CCCCCCCCCCCCC (racemic) [1,2-Ditetradecanoyl-rac-glycerol-3-phosphocholine]	> 50
Cc1ccc(O)c(O)c1 [4-Methylcatechol]	38.5
ClC1C(Cl)C(Cl)C(Cl)C(Cl)C1Cl (stereo not drawn) [alpha-1,2,3,4,5,6-Hexachlorocyclohexane]	> 90
CCCCOC(=O)C(C)O (stereo not shown) [Butyl lactate]	> 90
OCCOc1cccc(OCCO)c1 [2,2'-[Benzene-1,3-diylbis(oxy)]diethanol]	> 90
SCCc1cnccn1 [Pyrazineethanethiol]	> 90
CCN(CC)c1c([N+](=O)[O-])cc(C(F)(F)F)c(N)c1[N+](=O)[O-] [Dinitramine]	85.3
O=C(Oc1ccccc1)c1ccc(O)cc1 [Phenylparaben]	> 90
COc1cc(C(=O)OC(COCCC(C)C)CN2CCOCC2)cc(OC)c1OC (stereo not shown) [Amoproxan]	> 50
CC(C)c1cccc(C(C)C)c1N1C(=O)c2ccc(O)cc2C1=O [5HPP-33]	> 90
O=C(O)c1cc(I)cc(I)c1I [2,3,5-Triiodobenzoic acid]	> 100
Cc1cccc(N)c1N [2,3-Diaminotoluene]	> 90
CSCC[C@H](N)C(=O)O [Methionine]	> 50
COC(=O)[C@@H]1CC2=CC(=O)CC[C@]2(C)[C@@]23O[C@@H]2C[C@@]2(C)[C@@H](CC[C@@]24CCC(=O)O4)[C@H]13 [Eplerenone]	> 50
Cc1cc(C)c(C(=O)P(=O)(C(=O)c2c(C)cc(C)cc2C)c2ccccc2)c(C)c1 [(Phenylphosphoryl)bis[(2,4,6-trimethylphenyl)methanone]]	> 90
N[C@@H]1[C@H]2CN(c3nc4c(cc3F)c(=O)c(C(=O)O)cn4-c3ccc(F)cc3F)C[C@@H]12 [Trovafloxacin mesylate]	20.9
N[C@@H](COP(=O)(O)O)C(=O)O [Dexfosfoserine]	> 50

Compound	CC50 at 24 h [µM]
OC[C@@H](O)[C@@H](O)[C@H](O)[C@H](O)CO [D-Mannitol]	> 90
O=C1CCc2ccc(OCCCCN3CCN(c4cccc(Cl)c4Cl)CC3)cc2N1 [Aripiprazole]	11.8
C1COCCO1 [1,4-Dioxane]	> 90
CCC1(CC)C(=O)NC(=O)NC1=O [Sodium barbital]	> 90
Cc1cc(C)nc(Nc2ccccc2)n1 [Pyrimethanil]	> 90
O=C(/C=C/c1ccccc1)OCCc1ccccc1 [2-Phenylethyl 3-phenylprop-2-enoate]	> 90
Cc1cc(Nc2ccc(O)cc2)ccc1N [4-Amino-4'-hydroxy-3-methyldiphenylamine]	11.4
O=C(O)CCCCC1CCSS1 (stereo not drawn) [alpha-Lipoic acid]	> 90
C[C@H]1[C@H]2CC[C@H]3[C@@H]4CC=C5C[C@@H](N(C)C)CC[C@]5(C)[C@H]4CC[C@]23CN1C [Conessine]	> 50
CCCCCCCCCCCCCCCCC(C(=O)O)C(O)(CC(=O)O)C(=O)O (stereo not shown) [Agaric acid]	29.5
CCCCC1CCC(=O)O1 (stereo not shown) [4-Octanolide]	> 90
C=CCOC(=O)c1ccc(C(=O)OCC=C)c(C(=O)OCC=C)c1 [Triallyl trimellitate]	> 90
CC(C)Cc1ccccc1 [Isobutylbenzene]	> 90
Cc1c(NC(C)C)c(=O)n(-c2ccccc2)n1C [Ramifenazone]	> 50
O=C(O)[C@H](O)[C@@H](O)C(=O)O [L-Tartaric acid]	> 90
CN1C(=O)N(c2ccccc2Br)Cc2cnc(Nc3ccc4c(c3)OCC(CO)O4)nc21 (stereo not shown) [PharmaGSID_48519]	37.2
CC(C)COC(=O)C(C)C [Isobutyl isobutyrate]	> 90
ON=C1CCCCC1 [Cyclohexanone oxime]	> 90
COc1ccc(C[C@@H](C)NC[C@H](O)c2ccc(O)c(NC=O)c2)cc1 [Formoterol hemifumarate]	> 50
Cc1ccc(S(=O)(=O)N[C@@H](CCCCN)C(=O)CCl)cc1 [N-alpha-p-Tosyl-L-lysine chloromethyl ketone hydrochloride]	15
Cc1ccc(OC(=O)c2ccccc2O)cc1 [Salicylic acid p-tolyl ester]	> 90
CC(C)(C)CCCCCC(=O)O [Neodecanoic acid]	> 90
CNC[C@H](O)c1cccc(O)c1 [Phenylephrine hydrochloride]	> 90
O=C1NCCN1CCO [Hydroxyethyl imidazolidinone]	> 100
O=C1c2c(O)ccc([N+](=O)[O-])c2C(=O)c2c([N+](=O)[O-])ccc(O)c21 [1,8-Dihydroxy-4,5-dinitroanthraquinone]	8.27
Cc1cc(=O)oc2cc(O)cc(O)c12 [5,7-Dihydroxy-4-methylcoumarin]	> 90

Compound	CC50 at 24 h [µM]
CCCCC(=O)O[C@]1(C(=O)CO)CC[C@H]2[C@@H]3CCC4=CC(=O)CC[C@]4(C)[C@H]3[C@@H](O)C[C@@]21C [Hydrocortisone valerate]	> 50
c1csc(SSc2cccs2)c1 [2-Thienyl disulfide]	> 90
CCCCCCC/C=C/C=O [(2E)-2-Decenal]	> 90
CCC(CO)CO [2-Ethylpropane-1,3-diol]	> 90
Cc1cc2c(s1)Nc1ccccc1N=C2N1CCN(C)CC1 [Olanzapine]	15.7
C=C(C#N)CCC#N [2-Methylenepentanedinitrile]	> 90
C=C(C)CC(C)(C)C [2,4,4-Trimethyl-1-pentene]	> 90
C[C@](N)(Cc1ccc(O)cc1)C(=O)O [Metyrosine]	> 50
CC[C@H](C)COC(=O)/C=C/c1ccc(N=Cc2ccc(OC)cc2)cc1 [(+)-2-Methylbutyl-4-methoxybenzyladine-4'-aminocyannate]	> 90
CCCCCC=CCC(=O)OC [Methyl 3-nonenoate]	> 90
CC1=NN(c2cc(Cl)c(S(=O)(=O)O)cc2Cl)C(=O)C1N=Nc1ccc(S(=O)(=O)O)cc1 (stereo not shown) [C.I. Acid Yellow 17, disodium salt]	92.5
O=C1O[C@H]2[C@H](O)[C@@H]1OC(O)[C@H]2O (stereo partly shown) [Mannuronic acid lactone]	> 50
CCN(CC)CCOc1ccccc1C(=O)CCc1ccccc1 [Etafenone]	18.1
O=[N+]([O-])c1cccc(Cl)c1 [1-Chloro-3-nitrobenzene]	> 90
Clc1cc(Cl)c(OCC#CI)cc1Cl [Haloprogin]	11.9
CCCCNc1ccc(C(=O)OCCN(CC)CC)cc1 [Depolipon]	> 50
CCCCC(CC)COC(=O)/C=C\C(=O)OCC(CC)CCCC (stereo not shown) [Bis(2-ethylhexyl) maleate]	> 90
Cc1ccc(O)c(C(=O)c2ccccc2)c1 [2-Hydroxy-5-methylbenzophenone]	> 90
CCOC(=O)/C=C\C(=O)OCC [Diethyl maleate]	> 90
Oc1ccc2ccccc2c1 [2-Naphthalenol]	> 90
CCOC(=O)Oc1c(OC)cc(C(=O)O[C@@H]2C[C@@H]3CN4CCc5c([nH]c6cc(OC)ccc56)[C@H]4C[C@@H]3[C@H](C(=O)OC)[C@H]2OC)cc1OC [Syrosingopine]	> 20
N[C@@H](Cc1ccc(O)cc1)C(=O)O [L-Tyrosine]	> 50
OC[C@@H](O)[C@@H](O[C@@H]1O[C@H](CO)[C@H](O)[C@H](O)[C@H]1O)[C@H](O)[C@@H](O)CO [D-Lactitol monohydrate]	> 90
NCCC[C@H](N)CC(=O)N[C@H]1CNC(=O)[C@H]([C@H]2C[C@H](O)NC(N)=N2)NC(=O)/C(=C/NC(N)=O)NC(=O)[C@H](CO)NC(=O)[C@H](CO)NC1=O [Viomycin sulfate] (β3hOrn-[Dap]SS[ΔAla(Z-3-ureido)][X1]; lactam 1-C)	> 50

Same assay, conditions: rat, gh3-tre-luc cells, AC50 (uM) modified / 1000, Tox21_110001=Tox21_110501; viability, 1 nM T3 present, 24 h

Compound	CC50 at 24 h [µM]
CNC(C)(C)Cc1ccccc1 [Mephentermine hemisulfate]	> 20

Same assay, conditions: rat, gh3-tre-luc cells, AC50 (uM) modified / 1000, Tox21_110001=Tox21_112880; viability, 1 nM T3 present, 24 h

Compound	CC50 at 24 h [µM]
COc1ccc2[nH]cc(CCN(C(C)C)C(C)C)c2c1 [5-Methoxy-N,N-diisopropyltryptamine hydrochloride]	> 100

Same assay, conditions: rat, gh3-tre-luc cells, AC50 (uM) modified / 1000, Tox21_110001=Tox21_113158; viability, 1 nM T3 present, 24 h

Compound	CC50 at 24 h [µM]
C[C@]1(O)CC[C@H]2[C@@H]3CCC4=CC(=O)CC[C@]4(C)[C@@]3(F)[C@@H](O)C[C@@]21C [Fluoxymestrone]	> 50

Same assay, conditions: rat, gh3-tre-luc cells, AC50 (uM) modified / 1000, Tox21_110001=Tox21_200065; viability, 1 nM T3 present, 24 h

Compound	CC50 at 24 h [µM]
C[N+](C)(C)CCCl [Chlormequat chloride]	> 90

Same assay, conditions: rat, gh3-tre-luc cells, AC50 (uM) modified / 1000, Tox21_110001=Tox21_200854; viability, 1 nM T3 present, 24 h

Compound	CC50 at 24 h [µM]
C[C@]1(O)CC[C@H]2[C@@H]3CCC4=CC(=O)CC[C@]4(C)[C@@]3(F)[C@@H](O)C[C@@]21C [Fluoxymestrone]	> 90

Same assay, conditions: rat, gh3-tre-luc cells, AC50 (uM) modified / 1000, Tox21_110001=Tox21_302059; viability, 1 nM T3 present, 24 h

Compound	CC50 at 24 h [µM]
BrCCCCCCBr [1,6-Dibromohexane]	> 90
